This note sets out measurements from patent US12370192B2, “Azole-fused pyridazin-3(2H)-one derivatives” (TAKEDA PHARMACEUTICAL COMPANY LIMITED, priority 2019, dated 2025).

The target of experiment [1] is T1, human GPR139 receptor (Homo sapiens, UniProt Q6DWJ6).
T1 construct: expressed in transfected cells; host or cells: T-REx-CHO (Thermo Fisher Scientific), doxycycline-induced
T1 sequence (Q6DWJ6 1-353): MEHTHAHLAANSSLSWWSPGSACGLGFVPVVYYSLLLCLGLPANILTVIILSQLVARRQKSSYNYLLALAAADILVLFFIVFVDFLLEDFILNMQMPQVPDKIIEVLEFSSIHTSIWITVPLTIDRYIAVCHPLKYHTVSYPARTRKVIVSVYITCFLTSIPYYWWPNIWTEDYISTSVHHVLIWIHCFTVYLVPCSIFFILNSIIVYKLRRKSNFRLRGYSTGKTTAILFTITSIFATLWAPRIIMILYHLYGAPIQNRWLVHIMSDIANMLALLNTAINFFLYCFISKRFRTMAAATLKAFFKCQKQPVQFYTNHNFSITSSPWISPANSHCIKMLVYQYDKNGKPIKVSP
Description: GPR139 Competition Binding (membrane-based, tritium-labeled ligand). Particulars: T-REx-CHO membranes with human GPR139; 6.5 nM tritium-labeled ligand; 11-point curve, 30 μM maximum concentration; read-out: GPR139 Binding Affinity (pKi) (converted). The essentials: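 Membranes came from doxycycline-induced T-REx-CHO cells expressing human GPR139. They were incubated 20 min at room temperature with 6.5 nM tritiated ligand and compound (11 points, top 30 μM) in HEPES pH 7.3 buffer with MgCl2/CaCl2. Filter-bound counts gave Ki by four-parameter fit, reported as pKi.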

For experiment [2], the target named is T1, human GPR139 receptor. Description: Measurement of GPR139 Activation Via Calcium Signaling (FLIPR, T-REx-CHO cells). Format: cell-based. Particulars: T-REx-CHO cells stably expressing human GPR139, 11-point dose response, 10 μM maximum concentration, read-out: GPR139 Potency (pEC50) (converted). The essentials: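 T-REx-CHO cells stably carrying human GPR139 under tetracycline control, induced with 2 μg/mL doxycycline for 17 h at 37 °C, loaded 40 min with Calcium 5 dye plus probenecid in HBSS/HEPES pH 7.4. Agonist added as 11-point series (10 μM top); fluorescence read 1 min; pEC50 from four-parameter fit.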

For `CC(C)c1nn(C)c2cnn(CC(=O)N[C@@H](C)c3ccc(OC(F)(F)F)cc3)c(=O)c12` [Example 50, (S)-2-(3-isopropyl-1-methyl-4-oxo-1,4-dihydro-5H-pyrazolo[3,4-d]pyridazin-5-yl)-N-(1-(4-(trifluoromethoxy)phenyl)ethyl)acetamide], the Ki at human GPR139 receptor [1] is 126 nM. Also, at human GPR139 receptor [2], the EC50 was 166 nM.
As to `Cc1ccc([C@H](C)NC(=O)Cn2ncc3c(c(C(C)C)nn3C)c2=O)cc1` [Example 51, (S)-2-(3-isopropyl-1-methyl-4-oxo-1,4-dihydro-5H-pyrazolo[3,4-d]pyridazin-5-yl)-N-(1-(p-tolyl)ethyl)acetamide], the Ki on human GPR139 receptor [1] is 135 nM. The EC50 on human GPR139 receptor [2] was 32.4 nM.
Turning to `CC(C)c1nn(C)c2cnn(CC(=O)N[C@@H](C)c3ccc(C(F)(F)F)cc3)c(=O)c12` [Example 52, (S)-2-(3-isopropyl-1-methyl-4-oxo-1,4-dihydro-5H-pyrazolo-[3,4-d]pyridazin-5-yl)-N-(1-(4-(trifluoromethyl)phenyl)ethyl)acetamide], the Ki at human GPR139 receptor [1] was 204 nM. In addition, the EC50 on human GPR139 receptor [2] was 67.6 nM.
The corresponding values for `COc1ccc([C@H](C)NC(=O)Cn2ncc3c(c(C(C)C)nn3C)c2=O)cc1` [Example 53, (S)-2-(3-isopropyl-1-methyl-4-oxo-1,4-dihydro-5H-pyrazolo[3,4-d]pyridazin-5-yl)-N-(1-(4-methoxyphenyl)ethyl)acetamide] are 1020 nM and 55 nM.
For `Cc1ccc([C@H](C)NC(=O)Cn2nc(C)c3c(c(C)nn3C(C)C)c2=O)c(F)c1` [Example 54, (S)—N-(1-(2-fluoro-4-methylphenyl)ethyl)-2-(1-isopropyl-3,7-dimethyl-4-oxo-1,4-dihydro-5H-pyrazolo[3,4-d]pyridazin-5-yl)acetamide], on human GPR139 receptor [1], the Ki is 87.1 nM. Besides, the EC50 at human GPR139 receptor [2] was 107 nM.
For the molecule `Cc1ccc([C@H](C)NC(=O)Cn2nc(C)c3c(c(C)nn3C(C)C)c2=O)cc1` [Example 55, (S)-2-(1-isopropyl-3,7-dimethyl-4-oxo-1,4-dihydro-5H-pyrazolo[3,4-d]pyridazin-5-yl)-N-(1-(p-tolyl)ethyl)acetamide], on human GPR139 receptor [1], the Ki was 380 nM. Also, at human GPR139 receptor [2], the EC50 was 83.2 nM.
The corresponding values for `Cc1nn(C(C)C)c2c(C)nn(CC(=O)N[C@@H](C)c3ccc(C(F)(F)F)cc3)c(=O)c12` [Example 56, (S)-2-(1-isopropyl-3,7-dimethyl-4-oxo-1,4-dihydro-5H-pyrazolo[3,4-d]pyridazin-5-yl)-N-(1-(4-(trifluoromethyl)phenyl)ethyl)acetamide] are 479 nM and 214 nM.
The corresponding values for `COc1ccc([C@H](C)NC(=O)Cn2nc(C)c3c(c(C)nn3C(C)C)c2=O)cc1` [Example 57, (S)-2-(1-isopropyl-3,7-dimethyl-4-oxo-1,4-dihydro-5H-pyrazolo[3,4-d]pyridazin-5-yl)-N-(1-(4-methoxyphenyl)ethyl)acetamide] are 3090 nM and 132 nM.
Turning to `Cc1nn(C2CC2)c2c(=O)n(CC(=O)N[C@@H](C)c3ccc(C(F)(F)F)cn3)ncc12` [Example 58, (S)-2-(1-cyclopropyl-3-methyl-7-oxo-1,7-dihydro-6H-pyrazolo[3,4-d]pyridazin-6-yl)-N-(1-(5-(trifluoromethyl)pyridin-2-yl)ethyl)acetamide], the Ki at human GPR139 receptor [1] was 1350 nM. For the same molecule, at human GPR139 receptor [2], the EC50 is 74.1 nM.
Consider `Cc1nn(CC(=O)N[C@@H](C)c2ccc(C(F)(F)F)cn2)c(=O)c2c1c(C)nn2C(C)C` [Example 59, (S)-2-(1-isopropyl-3,4-dimethyl-7-oxo-1,7-dihydro-6H-pyrazolo[3,4-d]pyridazin-6-yl)-N-(1-(5-(trifluoromethyl)pyridin-2-yl)ethyl)acetamide], for which the Ki on human GPR139 receptor [1] is 741 nM. Moreover, the EC50 on human GPR139 receptor [2] is 347 nM.
For `Cc1nn(C)c2c(=O)n(CC(=O)N[C@@H](C)c3ccc(C(F)(F)F)cn3)ncc12` [Example 60, (S)-2-(1,3-dimethyl-7-oxo-1,7-dihydro-6H-pyrazolo[3,4-d]pyridazin-6-yl)-N-(1-(5-(trifluoromethyl)pyridin-2-yl)ethyl)acetamide], in that order: 30200 nM and 214 nM.
Take `Cc1nn(CC(=O)NC(C)c2ccc3c(c2)CCCO3)c(=O)c2c1c(C)nn2C1CC1` (stereo not drawn) [Example 61, N-(1-(chroman-6-yl)ethyl)-2-(1-cyclopropyl-3,4-dimethyl-7-oxo-1,7-dihydro-6H-pyrazolo[3,4-d]pyridazin-6-yl)acetamide]: on human GPR139 receptor [1], the Ki was 41.7 nM. The EC50 at human GPR139 receptor [2] was 141 nM.
In the case of `Cc1ccc([C@H](C)NC(=O)Cn2ncc3c(c(C)cn3C3CC3)c2=O)cc1F` [Example 62, (S)-2-(1-cyclopropyl-3-methyl-4-oxo-1,4-dihydro-5H-pyrrolo[2,3-d]pyridazin-5-yl)-N-(1-(3-fluoro-4-methylphenyl)ethyl)acetamide], the Ki at human GPR139 receptor [1] is 2.14 nM. Further, the EC50 on human GPR139 receptor [2] was 25.1 nM.
In the case of `Cc1cc(Cl)ccc1[C@H](C)NC(=O)Cn1ncc2c(c(C)cn2C2CC2)c1=O` [Example 63, (S)—N-(1-(4-chloro-2-methylphenyl)ethyl)-2-(1-cyclopropyl-3-methyl-4-oxo-1,4-dihydro-5H-pyrrolo[2,3-d]pyridazin-5-yl)acetamide], the Ki at human GPR139 receptor [1] is 2 nM. Besides, the EC50 at human GPR139 receptor [2] was 85.1 nM.
Take `Cc1cc(C)c([C@H](C)NC(=O)Cn2ncc3c(c(C)cn3C3CC3)c2=O)c(C)c1` [Example 64, (S)-2-(1-cyclopropyl-3-methyl-4-oxo-1,4-dihydro-5H-pyrrolo[2,3-d]pyridazin-5-yl)-N-(1-mesitylethyl)acetamide]: the Ki at human GPR139 receptor [1] is 2.09 nM. Also, the EC50 on human GPR139 receptor [2] is 120 nM.
For `Cc1ccc([C@H](C)NC(=O)Cn2ncc3c(c(C)cn3C3CC3)c2=O)c(C)c1` [Example 65, (S)-2-(1-cyclopropyl-3-methyl-4-oxo-1,4-dihydro-5H-pyrrolo[2,3-d]pyridazin-5-yl)-N-(1-(2,4-dimethylphenyl)ethyl)acetamide], in that order: 3.72 nM and 67.6 nM.
The corresponding values for `Cc1cn(C2CC2)c2cnn(CC(=O)N[C@@H](C)c3ccc(F)cc3Cl)c(=O)c12` [Example 66, (S)—N-(1-(2-chloro-4-fluorophenyl)ethyl)-2-(1-cyclopropyl-3-methyl-4-oxo-1,4-dihydro-5H-pyrrolo[2,3-d]pyridazin-5-yl)acetamide] are 0.794 nM and 79.4 nM.
For `COc1cc(Cl)ccc1C[C@H](C)NC(=O)Cn1ncc2c(c(C)cn2C2CC2)c1=O` [Example 67, (S)—N-(1-(4-chloro-2-methoxyphenyl)propan-2-yl)-2-(1-cyclopropyl-3-methyl-4-oxo-1,4-dihydro-5H-pyrrolo[2,3-d]pyridazin-5-yl)acetamide], the Ki on human GPR139 receptor [1] was 3.89 nM. Moreover, the EC50 on human GPR139 receptor [2] was 85.1 nM.
On to `Cc1ccc([C@H](C)NC(=O)Cn2nc(C)c3c(C)nn(C4CC4)c3c2=O)cc1F` [Example 68, (S)-2-(1-cyclopropyl-3,4-dimethyl-7-oxo-1,7-dihydro-6H-pyrazolo[3,4-d]pyridazin-6-yl)-N-(1-(3-fluoro-4-methylphenyl)ethyl)acetamide], for which, on human GPR139 receptor [1], the Ki was 0.347 nM. The EC50 at human GPR139 receptor [2] is 69.2 nM.
For the molecule `Cc1ccc([C@H](C)NC(=O)Cn2nc(C)c3c(C)nn(C4CC4)c3c2=O)c(F)c1` [Example 69, (S)-2-(1-cyclopropyl-3,4-dimethyl-7-oxo-1,7-dihydro-6H-pyrazolo[3,4-d]pyridazin-6-yl)-N-(1-(2-fluoro-4-methylphenyl)ethyl)acetamide], the Ki on human GPR139 receptor [1] is 0.447 nM. Besides, the EC50 on human GPR139 receptor [2] was 69.2 nM.
The corresponding values for `Cc1cc(C)c([C@H](C)NC(=O)Cn2nc(C)c3c(C)nn(C4CC4)c3c2=O)c(C)c1` [Example 70, (S)-2-(1-cyclopropyl-3,4-dimethyl-7-oxo-1,7-dihydro-6H-pyrazolo[3,4-d]pyridazin-6-yl)-N-(1-mesitylethyl)acetamide] are 0.759 nM and 178 nM.
For the molecule `Cc1nn(CC(=O)N[C@@H](C)c2ccc(F)cc2Cl)c(=O)c2c1c(C)nn2C1CC1` [Example 71, (S)—N-(1-(2-chloro-4-fluorophenyl)ethyl)-2-(1-cyclopropyl-3,4-dimethyl-7-oxo-1,7-dihydro-6H-pyrazolo[3,4-d]pyridazin-6-yl)acetamide], the Ki on human GPR139 receptor [1] was 0.398 nM. The EC50 on human GPR139 receptor [2] was 93.3 nM.
On to `Cc1nn(CC(=O)N[C@@H](C)c2ccc(C(F)(F)F)cc2)c(=O)c2cnn(C)c12` [Example 72, (S)-2-(1,7-dimethyl-4-oxo-1,4-dihydro-5H-pyrazolo[3,4-d]pyridazin-5-yl)-N-(1-(4-(trifluoromethyl)phenyl)ethyl)acetamide], for which the Ki at human GPR139 receptor [1] is 1910 nM. For the same molecule, the EC50 at human GPR139 receptor [2] is 55 nM.
In the case of `Cc1nn(CC(=O)N[C@@H](C)c2ccc(OC(F)(F)F)cc2)c(=O)c2cnn(C)c12` [Example 73, (S)-2-(1,7-dimethyl-4-oxo-1,4-dihydro-5H-pyrazolo[3,4-d]pyridazin-5-yl)-N-(1-(4-(trifluoromethoxy)phenyl)ethyl)acetamide], the Ki on human GPR139 receptor [1] was 3470 nM. At human GPR139 receptor [2], the EC50 was 63.1 nM.
